Assay results taken from patent publication US20230088719A1, “USE OF BMP INHIBITORS IN THE TREATMENT OF MOLAR PREGNANCY” (BOGAZICI UNIVERSITESI, priority 2020, published 2023).
“Also recorded” adds a separate entry of the source.

Test system: complete mole iPS cells
Assay: Trophoblast differentiation of complete mole iPS cells under AP conditions with BMP receptor inhibitor LDN193189
Type: cell-based, human
Method: FIG. 9—Preventing trophoblast differentiation in complete mole iPS cells by inhibition of the BMP signaling pathway. Cells are exposed to vehicle (DMSO) or BMP receptor inhibitor LDN193189 (100 nM) under AP conditions. (A) Changes in colony morphology by LDN193189 treatment. Pictures were obtained with 4× magnification. (B) Heat map showing the expression of trophoblast markers during differentiation of healthy and complete mole iPS cells (n=2 biological replicas) (C-D) Violin plot representation of pluripotency and trophoblast markers (n=2, ****p<0.001, Wilcoxon rank total test) (E) RT-qPCR for trophoblast and stem cell markers. Sidak multiple comparison tests were applied following 2-way ANOVA, *p<0.05, **p<0.01, ***p<0.005, ****p<0.001. Bars; showing±Standard Deviation. (F) Representative immunoblots for CDX2, HLA-G, KRT7 and OCT3/4.
In accordance the purpose of the present invention, the inventors applied it to the nutrition fluid of cells under LDN193189 AP conditions to test whether BMP receptor inhibitors can attenuate trophoblast differentiation or not. […] (FIG. 10A)
Trophoblast cells were formed from the obtained IPSCs under BAP or AP conditions. IPS cells were routinely kept on MEFs with hES medium (10 ng/mL FGF2). For trophoblast differentiation, 2.4×10^4 cells per square centimeter were seeded on matrigel-coated plates with conditioned hES medium through a monolayer of mitomycin-C treated MEF nutrient cells (MEF-CM) containing FGF2 (10 ng/mL). Next day, the medium was changed as MEF-CM containing 4 ng/mL FGF2. Next day, the medium was changed as BMP4 (10 ng/mL) containing unconditioned (BAP) hESC basal medium with MEF nutrient cells (RD Systems), ALK4/5/7 inhibitor, A83-01 (1 μM) (Tocris) and FGF2-signal inhibitor PD173074 […] (Sigma) (22, 27, 28). Control cultures were grown in the presence of FGF2 and in the absence of BAP. The medium was refreshed daily.
Total RNA was extracted using the Direct-zol RNA Isolation Kit (Zymogen) and cDNA was synthesized using the Sensifast cDNA synthesis kit (Bioline) as described by the manufacturer. Sequences of primers used in gene expression were synthesized by Macrogen as listed in table 3. qRT-PCR was performed on Exicycler™ 96 (Bioneer) using SensiFAST™ SYBRQR No-ROX Kit (Bioline). qRT-PCR results were analysed by the Ct method for relative amounts by taking GAPDH or HPRT as internal controls.
Cells were harvested in RIPA lysis buffer (150 mM NaCl, 1% NP40, 0.5% sodium deoxycholate, 0.1% SDS, 50 mM Tris pH 7.4) supplied with protease and phosphatase inhibitors (Roche, Switzerland). TCA-acetone precipitation was performed for the supernatants. Protein samples were applied to the SDS gel. Semi-dry transfer was performed by using Blotting papers (Sigma-Aldrich, USA) and PVDF membrane (Millipore, Ireland). After blocking with 5% non-fat dry milk, membranes were incubated overnight with primary antibodies (1:1000) at +4° C. Next day, the membrane was incubated with secondary antibodies connected with 1:2000 HRP according to the host origin of the primary antibody. Between all steps, membranes were washed 3 times with TBS-T. Immunoblot membranes were visualized with the Syngene documentation system by using ECL HRP Substrate (Advansta, USA).
Total RNA was extracted by using the Direct-zol RNA Isolation Kit (Zymogen) according to the protocol of the manufacturer (n=2 in all cases). Library preparation procedure by using Truseq strand mRNA LT Sample Preparation Kit (Illumina) and RNA sequencing procedure by using Hiseq2500 (Illumina) were performed by Macrogen Inc. (Korea). RNA sequence data were processed and interpreted with the Genialis visual computing platform (www.genialis.com). Briefly, RNA sequence readings were subjected to correction (BBDuk), mapping (STAR) and expression quantitation (featureCounts) procedures, respectively. The readings were mapped to Homo sapiens GRCh38 (Ensembl, version 92, ERCC). […]

[1] = complete mole cells, BMP pathway inhibition with LDN193189 100 nM, AP conditions, FIG. 9F
[2] = complete mole cells, LDN193189 100 nM, AP conditions, FIG. 9C-9D

With `c1ccc2c(-c3cnn4cc(-c5ccc(N6CCNCC6)cc5)cnc34)ccnc2c1` [LDN193189] the “trophoblast differentiation of complete mole cells” value (LDN193189 100 nM, AP conditions, heat map of trophoblast markers FIG. 9B) was “inhibits trophoblast differentiation of complete mole cells; also recorded: suppression of excessive trophoblast differentiation”, the “hierarchical clustering at whole transcriptome level” value (cells treated with LDN193189, FIG. 10D) was “clustered with non-differentiated iPS cells” and the “trophoblast gene expression by qRT-PCR” value (complete mole cells, BMP pathway inhibition with LDN193189 100 nM, AP conditions, FIG. 9E) was “decrease in trophoblast gene expression”. The “CDX2, KRT7, HLA-G expression (immunoblot)” value [1] was “stopped CDX2, KRT7, HLA-G increase in expression”, the “OCT3/4 expression (immunoblot)” value [1] was “prevented decrease in expression (downregulation) of OCT3/4” and the “colony morphology (light microscopy)” value (complete mole cells, LDN193189 100 nM, AP conditions (A83-01+PD173074, no BMP4), vs DMSO vehicle, FIG. 9A) was “morphological phenotype similar to healthy cells”. For the same compound, the “expression of pluripotency markers (RNA sequencing, violin plot)” value [2] was “remained highly expressed” and the “global expression of trophoblast markers (RNA sequencing, violin plot)” value [2] was “decreased”.
